The test system of one assay is human naïve CD4+ T cells. Put plainly: kinetic metabolome analysis of activated T cells. Format: cell-based. Conditions: L-arginine in medium increased 4-fold (1 mM standard), all time points.
The test system of a further assay is activated CD4+ T cells. Nature of the assay: IL-2 withdrawal assay and assessment of cell viability, CD4+ T cells. Format: cell-based, human. Here is the method:
Naïve CD4 T cells were activated with plate-bound CD3 and CD28 antibodies. 48 h after activation IL-2 was added to culture media (500 U ml^−1). After a further 3 days of culturing, cells were washed, counted and equal cell numbers were plated in medium devoid of IL-2. The withdrawal medium was no longer supplemented with e.g. L-arginine. Cell viability was assessed with annexin V.

The test system of another assay is mouse CD8+ OT-I T cells. Put plainly: Survival of activated OT-I T cells in vitro after IL-2 withdrawal. Type of assay: cell-based. The following applies: L-arginine-supplemented medium 4 days. From the text: FIG. 7. CD8+ T cells with increased L-arginine levels display improved anti-tumor activity in vivo. (A) Survival of activated mouse CD8+OT-I T cells (4 d) after IL-2 withdrawal. Data points represent the difference between the percentage of living T cells from cultures performed in L-Arg medium or Ctrl medium; n=11. (B) CD90.1+CD45.1/2+ and CD90.1+CD45.1+ naïve CD8+ OT-I T cells were activated for 4 days in Ctrl medium or L-Arg medium, respectively. Equal numbers of the congenically marked activated OT-I cells were co-transferred into Cd3e−/− mouse and the number of living T cells was measured in pooled spleen and lymph nodes at the indicated time points; n=3 at each time point. (C) Naïve CD8+ OT-I T cells were activated with CD3+CD28 antibodies in L-Arg medium or control (Ctrl) medium. Five days after activation, the percentage of Tcm-like cells (CD44hi, CD62L+) was measured by flow cytometry; n=15. (D) Naïve OT-I CD8+ T cells were activated in L-Arg medium or Ctrl medium and IFN-γ was quantified in culture supernatants after 5 days; n=15. (E) Same as in (D) but T cells were re-activated on day 5 day with PMA/Ionomycin; n=15. (F, G) B16.OVA melanoma cells were injected into C57BL/6 mice and tumors were allowed to grow for 10 days. […] Tumor burden (F) and survival (G) were assessed over time. […] In (G) *p<0.05 as determined by log-rank test comparison between curves. […]

A further assay has as its system OT-I T cells. Nature of the assay: Adoptive T cell transfer and survival experiment. Type of assay: in vivo. Conditions: activated 4 days in L-Arg medium, transfer into Cd3e−/− mice. As to the method: CD90.1^+ CD45.1/2^+ OT-I cells were activated with plate-bound antibodies to CD3 and CD28 in control medium. OT-I cells with a different congenic marker (CD90.1^+ CD45.1^+) were activated in L-arginine-supplemented medium. At day 4, equal cell numbers were injected into the tail vein of Cd3e^−/− host mice. To study the expansion of OT-I effector cells, host mice were sacrificed after 1, 3, 6, and 10 days post transfer and CD90.1^+ OT-I T cells from lymphoid organs (spleen and lymph nodes) were enriched with anti-CD90.1 micro beads (Miltenyi Biotec), stained and analysed by FACS. The following monoclonal antibodies were used α-CD8α (53-6.7), α-CD44 (1M7), α-CD62L (MEL-14), α-CD90.1 (OX-7), α-CD90.2 (30-H12), α-CD45.1 (A20), α-CD45.2 (104).

Bounds are passed on as bounds.

Protocol for human naïve CD4+ T cells: (B) Differential analysis of the glycolytic pathway between naïve CD4^+ T cells cultured in L-Arg medium or Ctrl medium, 96 h after activation. Log 2 fold changes of proteins and metabolites are color-coded. […] 3-P-Glycerate and 2-P-Glycerate could not be distinguished as they have the same mass. (C) 72 h-activated T cells were plated in fresh medium and glucose consumption was determined enzymatically after 24 h; n=9 from three donors. (D) Seahorse experiment performed with activated (96 h) T cells from one donor. Oligomycin was injected after 56 min, FCCP after 96 min, and antimycin (to inhibit the respiratory chain) after 136 min. Data are representative of 5 independent experiments with different donors.
(A) Human naïve CD4^+ T cells were activated in normal medium or in L-Arg medium. Nitric oxide formation was measured using DAF-FM diacetate at different time points.
Naïve CD4^+ T cells were either analyzed directly after isolation or at different time points after activation with CD3 and CD28 antibodies. Cells were washed twice in 96-well plates with 75 mM ammonium carbonate at pH 7.4 and snap frozen in liquid nitrogen. Metabolites were extracted three times with hot (>70° C.) 70% ethanol. Extracts were analyzed by flow injection—time of flight mass spectrometry on an Agilent 6550 QTOF instrument operated in the negative mode, as described previously (Fuhrer et al., 2011). Typically 5,000-12,000 ions with distinct mass-to-charge (m/z) ratio could be identified in each batch of samples. Ions were putatively annotated by matching their measured mass to that of the compounds listed by the KEGG database for Homo sapiens, allowing a tolerance of 0.001 Da. Only deprotonated ions (without adducts) were considered in the analysis. In case of multiple matching, such as in the case of structural isomers, all candidates were retained.

As for `N=C(N)NCCC[C@H](N)C(=O)O` [L-arginine], in the assay with human naïve CD4+ T cells, the “Intracellular arginine levels compared to controls” value is 1.5-2.5 fold and the “Intracellular ornithine levels compared to controls” value is listed as 1.5-2.5 fold. Also, the “time of addition after T cell activation at which most effective on survival” value in the assay on activated CD4+ T cells (L-Arg 3 mM added at indicated time points) is no more than 48 h. Further, the “survival of activated CD4+ T cells in the absence of exogenous cytokines” value in the assay with activated CD4+ T cells (metabolites 3 mM, except for spermidine 0.1 mM, 5 days after IL-2 withdrawal) is reported as “significantly increased”. The “survival capacity of OT-I T cells in vitro” value in the assay on mouse CD8+ OT-I T cells is reported as “higher survival capacity”. The “survival capacity of OT-I T cells in vivo” value in the assay on OT-I T cells is reported as “higher survival capacity”.

The values above are taken from patent US11167015B2, “Arginine and its use as a T cell modulator” (INSTITUTE FOR RESEARCH IN BIOMEDICINE, priority 2016, dated 2021).
